Measured values from patent publication EP0903346A1, “SYDNONE IMINE DERIVATIVES” (Chugai Seiyaku Kabushiki Kaisha, priority 1995, dated 1997).

Experiments:
anesthetized rat = assay: Blood pressure-lowering effect in anesthetized rat; type: in vivo; conditions: duodenal administration; for Blood pressure-lowering effect ED30: dose causing a decrease in the blood pressure by 30%; for Blood pressure-lowering effect Half duration: half duration at ED30 (recovery to 50% of the maximum decrease in blood pressure)
Description: Male Sprague Dawley rats weighing 280 to 450 g were anesthetized with sodium pentobarbital (50 mg/kg, i.p.) and fixed in the supine position. A canula was inserted into the trachea of each animal. Then the blood pressure of the animal was measured (AP-621G, Nippon Kohden Corp.) through a polyethylene tube (PE50) inserted into the right femoral artery via a pressure transducer (Life Kit DTS, DX-300, Nippon Kohden Corp.) and the heart rate was determined from the pulse wave (AT-610G, Nippon Kohden Corp.). A canula (PE10) for injecting the maintenance anesthetic drug (sodium pentobarbital 20 mg/kg/h) was inserted into the right femoral vein. The abdominal region was medianly sectioned and a canula (PE50 connected to a injection needle 23G) for duodenal drug administration was inserted thereinto and fixed with Aronalpha for surgical use. After 60-90 minutes of recovery period, the drug was administered into duodenum. After administering the drug, the blood pressure was measured until the average blood pressure returned to the level before the administration.
As the indication of the blood pressure-lowering effect of each drug, the dose causing a decrease in the blood pressure by 30%, based on the level before the administration, was calculated from the dose-response curve and employed as the 30% effective dose (ED30). Moreover, the time required for the recovery to the level corresponding to 50% of the maximum decrease in the blood pressure (half duration) was measured at each dose. Then the half duration at the above-mentioned ED30 was calculated and employed as the indication of the lasting time of the blood pressure-lowering effect (half duration at ED30).
As the test compounds, use was made of the compounds of the present invention obtained in the above Examples. Table C summarizes the results. Table C

isolated rat aorta = assay: Test with the use of isolated rat aorta (relaxation of potassium chloride contraction); conditions: relaxation of continuous contraction due to 30 mM potassium chloride, thoracic aorta of male Sprague Dawley rats, read-out: Rat aorta IC50
Description: The thoracic aorta was taken out from male Sprague Dawley rats weighing 450 to 600 g and cut into circular samples of 2 mm in width. […] The contraction reactions of the samples were isometrically recorded with FD pick-up. After 1 to 1.5 hours of equilibration, 30 mM potassium chloride was added to contract the tissue. […] As the test compounds, the invention compounds obtained in the above Examples were employed.

In the case of “3-(4-Benzylpiperazin-1-yl)-N-((3,4,5-trimethoxyphenyl)acetyl)sydnonimine [Example 17]”, the “Blood pressure-lowering effect ED30” value (anesthetized rat) is reported as 1.4 mg/kg and the “Blood pressure-lowering effect Half duration” value (anesthetized rat) is reported as 21 min.

With `C[C@H](CSC(=O)c1ccccc1)C(=O)[N-]c1c[n+](N2CCOCC2)no1` [Example 4, N-((S)-3-(Benzoylthio)isobutyryl)-3-morpholinosydnonimine] the IC50 (isolated rat aorta) was 23 nM.

For `C[C@H](CSC(=O)c1ccccc1)C(=O)[N-]c1c[n+](N(C)C)no1` [Example 5, N-((S)-3-(Benzoylthio)isobutyryl)-3-dimethylaminosydnonimine], the IC50 (isolated rat aorta) was 570 nM.

In the case of `C[C@H](CSC(=O)c1ccccc1)C(=O)[N-]c1c[n+](N2CCN(Cc3ccccc3)CC2)no1` [Example 18, N-((S)-3-(Benzoylthio)isobutyryl)-3-(4-benzylpiperazin-1-yl)sydnonimine], the “Blood pressure-lowering effect ED30” value (anesthetized rat) is reported as 2.0 mg/kg and the “Blood pressure-lowering effect Half duration” value (anesthetized rat) is reported as 62 min.

For `COc1cc(CC(=O)[N-]c2c[n+](N3CCN(C)CC3)no2)cc(OC)c1OC` [Example 42, N-((3,4,5-Trimethoxyphenyl)acetyl)-3-(4-methylpiperazin-1-yl)sydnonimine], the “Blood pressure-lowering effect ED30” value (anesthetized rat) was 4.0 mg/kg and the “Blood pressure-lowering effect Half duration” value (anesthetized rat) was 60 min.

`C[C@H](CSC(=O)c1ccccc1)C(=O)[N-]c1c[n+](N2CCN(CC(F)(F)F)CC2)no1` [Example 70, N-((S)-3-(Benzoylthio)isobutyryl)-3-(4-(2,2,2-trifluoroethyl)piperazin-1-yl)sydnonimine] was tested, and the “Blood pressure-lowering effect ED30” value (anesthetized rat) was 0.7 mg/kg and the “Blood pressure-lowering effect Half duration” value (anesthetized rat) was 41 min.

With `C[C@H](CSC(=O)c1ccccc1)C(=O)[N-]c1c[n+](N2CCN(C3CCCC3)CC2)no1` [Example 72, N-((S)-3-(Benzoylthio)isobutyryl)-3-(4-cyclopentylpiperazin-1-yl)sydnonimine] the “Blood pressure-lowering effect ED30” value (anesthetized rat) was 1.3 mg/kg and the “Blood pressure-lowering effect Half duration” value (anesthetized rat) was 47 min.

In the case of `CC(=O)SC[C@@H](C)C(=O)[N-]c1c[n+](N2CCN(C)CC2)no1` [Example 78, N-((S)-3-(Acetylthio)isobutyryl)-3-(4-methylpiperazin-1-yl)sydnonimine], the “Blood pressure-lowering effect ED30” value (anesthetized rat) is reported as 1.0 mg/kg and the “Blood pressure-lowering effect Half duration” value (anesthetized rat) is reported as 40 min.

In the case of `CC(=O)SC[C@@H](C)C(=O)[N-]c1c[n+](N2CCN(C(C)C)CC2)no1` [Example 80, N-((S)-3-(Acetylthio)isobutyryl)-3-(4-isopropylpiperazin-1-yl)sydnonimine], the “Blood pressure-lowering effect ED30” value (anesthetized rat) is reported as 0.6 mg/kg and the “Blood pressure-lowering effect Half duration” value (anesthetized rat) is reported as 49 min.

With `CCN1CCN([n+]2cc([N-]C(=O)CSC(C)=O)on2)CC1` [Example 85, N-(Acetylthioacetyl)-3-(4-ethylpiperazin-1-yl)sydnonimine] the “Blood pressure-lowering effect ED30” value (anesthetized rat) was 0.3 mg/kg and the “Blood pressure-lowering effect Half duration” value (anesthetized rat) was 44 min.

`CC(=O)SCCC(=O)[N-]c1c[n+](N2CCN(Cc3ccccc3)CC2)no1` [Example 119, N-(3-(Acetylthio)propionyl)-3-(4-benzylpiperazin-1-yl)sydnonimine] was tested, and the “Blood pressure-lowering effect ED30” value (anesthetized rat) was 1.2 mg/kg and the “Blood pressure-lowering effect Half duration” value (anesthetized rat) was 49 min.

In the case of `CCN1CCN([n+]2cc([N-]C(=O)CCSC(C)=O)on2)CC1` [Example 122, N-(3-(Acetylthio)propionyl)-3-(4-ethylpiperazin-1-yl)sydnonimine], the “Blood pressure-lowering effect ED30” value (anesthetized rat) is reported as 0.6 mg/kg and the “Blood pressure-lowering effect Half duration” value (anesthetized rat) is reported as 48 min.

For `CC(C)N1CCN([n+]2cc([N-]C(=O)CCSC(=O)c3ccccc3)on2)CC1` [Example 129, N-(3-(Benzoylthio)propionyl)-3-(4-isopropylpiperazin-1-yl)sydnonimine], the “Blood pressure-lowering effect ED30” value (anesthetized rat) was 1.3 mg/kg and the “Blood pressure-lowering effect Half duration” value (anesthetized rat) was 42 min.

`Cc1cccc(C)c1C(=O)SCC(=O)[N-]c1c[n+](N2CCN(C)CC2)no1` [Example 132, N-((2,6-Dimethylbenzoylthio)acetyl)-3-(4-methylpiperazin-1-yl)sydnonimine] was tested, and the “Blood pressure-lowering effect ED30” value (anesthetized rat) was 0.7 mg/kg and the “Blood pressure-lowering effect Half duration” value (anesthetized rat) was 44 min.

For `CC(C)N1CCN([n+]2cc([N-]C(=O)CCSC(=O)c3ccc(F)cc3)on2)CC1` [Example 137, N-(3-(4-Fluorobenzoylthio)propionyl)-3-(4-isopropylpiperazin-1-yl)sydnonimine], the “Blood pressure-lowering effect ED30” value (anesthetized rat) was 0.6 mg/kg and the “Blood pressure-lowering effect Half duration” value (anesthetized rat) was 46 min.

`Cc1cccc(C)c1C(=O)SCCC(=O)[N-]c1c[n+](N2CCN(C)CC2)no1` [Example 141, N-(3-(2,6-Dimethylbenzoylthio)propionyl)-3-(4-methylpiperazin-1-yl)sydnonimine] was tested, and the “Blood pressure-lowering effect ED30” value (anesthetized rat) was 0.5 mg/kg and the “Blood pressure-lowering effect Half duration” value (anesthetized rat) was 48 min.

`CCN1CCN([n+]2cc([N-]C(=O)CCSC(=O)c3c(F)cccc3F)on2)CC1` [Example 146, N-(3-(2,6-Difluorobenzoylthio)propionyl)-3-(4-ethylpiperazin-1-yl)sydnonimine] was tested, and the “Blood pressure-lowering effect ED30” value (anesthetized rat) was 0.6 mg/kg and the “Blood pressure-lowering effect Half duration” value (anesthetized rat) was 45 min.

With `CCN1CCN([n+]2cc([N-]C(=O)CCSC(=O)C(C)(C)C)on2)CC1` [Example 155, N-(3-(Pivaloylthio)propionyl)-3-(4-ethylpiperazin-1-yl)sydnonimine] the “Blood pressure-lowering effect ED30” value (anesthetized rat) was 0.2 mg/kg and the “Blood pressure-lowering effect Half duration” value (anesthetized rat) was 46 min.

For `CCNC(=O)SCCC(=O)[N-]c1c[n+](N2CCN(CC)CC2)no1` [Example 163, N-(3-(Ethylcarbamoylthio)propionyl)-3-(4-ethylpiperazin-1-yl)sydnonimine], the “Blood pressure-lowering effect ED30” value (anesthetized rat) was 0.2 mg/kg and the “Blood pressure-lowering effect Half duration” value (anesthetized rat) was 44 min.

For `CN1CCN([n+]2cc([N-]C(=O)CCSC(=O)Nc3ccccc3)on2)CC1` [Example 171, N-(3-(Phenylcarbamoylthio)propionyl)-3-(4-methylpiperazin-1-yl)sydnonimine], the “Blood pressure-lowering effect ED30” value (anesthetized rat) was 0.3 mg/kg and the “Blood pressure-lowering effect Half duration” value (anesthetized rat) was 45 min.

For `CN1CCN([n+]2cc([N-]C(=O)CCCSC(=O)c3ccccc3)on2)CC1` [Example 174, N-(4-(Benzoylthio)butyryl)-3-(4-methylpiperazin-1-yl)sydnonimine], the “Blood pressure-lowering effect ED30” value (anesthetized rat) was 0.5 mg/kg and the “Blood pressure-lowering effect Half duration” value (anesthetized rat) was 43 min.

In the case of `CN1CCN([n+]2cc([N-]C(=O)CCSc3cc(C(C)(C)C)c(O)c(C(C)(C)C)c3)on2)CC1` [Example 179, N-(3-(3,5-Di-t-butyl-4-hydroxyphenylthio)propionyl)-3-(4-methylpiperazin-1-yl)sydnonimine], the “Blood pressure-lowering effect ED30” value (anesthetized rat) is reported as 0.9 mg/kg and the “Blood pressure-lowering effect Half duration” value (anesthetized rat) is reported as 43 min.

In the case of `CC(=O)N[C@@H](CSC(C)=O)C(=O)[N-]c1c[n+](N2CCN(C)CC2)no1` [Example 181, N-((R)-2-Acetylamino-3-(acetylthio)propionyl)-3-(4-methylpiperazin-1-yl)sydnonimine], the “Blood pressure-lowering effect ED30” value (anesthetized rat) is reported as 0.8 mg/kg and the “Blood pressure-lowering effect Half duration” value (anesthetized rat) is reported as 60 min.

`CC(=O)N[C@@H](CSC(C)=O)C(=O)[N-]c1c[n+](N2CCN(C(C)C)CC2)no1` [Example 183, N-((R)-2-Acetylamino-3-(acetylthio)propionyl)-3-(4-isopropylpiperazin-1-yl)sydnonimine] was tested, and the “Blood pressure-lowering effect ED30” value (anesthetized rat) was 1.0 mg/kg and the “Blood pressure-lowering effect Half duration” value (anesthetized rat) was 47 min.

With `CC(=O)N[C@@H](CSC(=O)c1ccc(F)cc1)C(=O)[N-]c1c[n+](N2CCN(C)CC2)no1` [Example 185, N-((R)-2-Acetylamino-3-(4-fluorobenzoylthio)propionyl)-3-(4-methylpiperazin-1-yl)sydnonimine] the “Blood pressure-lowering effect ED30” value (anesthetized rat) was 1.5 mg/kg and the “Blood pressure-lowering effect Half duration” value (anesthetized rat) was 53 min.

With `Cc1c(C)c2c(c(C)c1O)CCC(C)(C(=O)SCC(=O)[N-]c1c[n+](N3CCN(C)CC3)no1)O2` (stereo not shown) [Example 191, N-((6-Hydroxy-2,5,7,8-tetramethylchroman-2-carbonylthio)acetyl)-3-(4-methylpiperazin-1-yl)sydnonimine] the “Blood pressure-lowering effect ED30” value (anesthetized rat) was 1.0 mg/kg and the “Blood pressure-lowering effect Half duration” value (anesthetized rat) was 58 min.

In the case of `CCOC(=O)[N-]c1cn(N2CCOCC2)n[o+]1` [molsidomine, reference compound], the “Blood pressure-lowering effect ED30” value (anesthetized rat) is reported as 0.3 mg/kg and the “Blood pressure-lowering effect Half duration” value (anesthetized rat) is reported as 39 min.
